Starred links: 1 amine or outer side, 2 acyl side, 3 side chain; linkers in the order of their positions; H or OH if unused. Residues, ends and D or L forms follow the SMILES beside them. *: point of attachment. X1 = CC[C@@]1(O)C(=O)OCc2c1cc1n(c2=O)Cc2c-1nc1cc(F)c(C)c3c1c2[C@@H](NC(=O)CNC(=O)[C@H](Cc1ccccc1)NC(=O)CNC(=O)CNC(=O)CCCCC(=O)*)CC3; Pteroyl = Nc1nc2ncc(CNc3ccc(C(=O)*)cc3)nc2c(=O)[nH]1; γGlu = O=C(O)[C@H](CCC(=O)[*:2])N[*:1]
Assays:
[1] = Safety evaluation in ICR mice; type: in vivo
Experimental: Experiment purpose: Safety evaluation of CR194AX in ICR mice
Sample preparation: An appropriate amount of CR194AX was weighed and dissolved in PBS, and an appropriate amount of alkaline solution was added to formulate a sample mother solution with a neutral pH, which was filtered and diluted with filtered PBS to a sample solution with a working concentration for later use.
Experimental design: ICR mice (female, 6-8 weeks old, weighing about 25 g) were randomly grouped according to body weight, and the administration was started on the first day of grouping. The dosage was adjusted according to the latest body weight of the mice, and the administration was performed via tail vein injection at an administration volume of 10 μl/g. After grouping and administration, the effects of the drugs on the normal behaviors of the animals, including the activity, food intake and drinking status, body weight, eyes, hair, feces, secretions and other abnormalities of the experimental animals, were tested. The body weight of the mice was measured twice a week and observed for 8 days after the last administration. At the end of the experiment, the liver and spleen were weighed, and the liver, spleen, lung, kidney and stomach were taken out and placed in 10% formalin neutral fixative for HE analysis. Sample preparation: An appropriate amount of the compound was weighed and dissolved in PBS, and an appropriate amount of alkaline solution was added to formulate a sample mother solution with a neutral pH, which was filtered and diluted with filtered physiological saline to a sample solution with a working concentration for later use.

[2] = system: MIA PaCa2 cells; experiment: Cell expansion inhibition assay (CCK-8, 72 h), Table 4; type: cell-based, human; conditions: without expression of FOLR1, read-out: MIAPACA-2 IC50
Experimental: (§1) Cell lines: HEK293T-FOLR1 (a stably transformed cell line overexpressing FOLR1), SK-BR-3 (human breast cancer cell with low expression of FOLR1) and MIA PaCa2 (human pancreatic cancer cell without expression of FOLR1).
(§2) Main reagents: 1640 folic acid-free medium, fetal bovine serum, penicillin-streptomycin solution, L-glutamine and CCK8.
(§3) (1) Cell plating: Cells were prepared in advance, digested with Trypsin, collected and counted. A complete cell culture medium was used to dilute SK-BR-3 cells to 3.0×10^4 cells/ml, HEK293T-FOLR1 cells to 1.5×10^4 cells/ml, and MIA PaCa-2 cells to 2.0×10^4 cells/ml. 100 μl of diluted cell solution was added to each well of 96-well plates, and negative and blank control wells were set on each plate. The 96-well plates added with the cells were placed in an incubator at 37° C., 5% CO2 for culturing overnight.
(§4) (2) Diluting and adding samples: The samples were serially diluted with medium (the starting concentration was 30 μM, 5-fold serial dilution), and a total of 10 concentration gradients were set. To each well of the 96-well plates that were cultured overnight, 50 μl of the diluted samples were added, with 3 replicate wells; negative controls and blank controls were set; and the plates were placed in an incubator at 37° C., 5% CO2 for culturing 72 h.
(§5) (3) Color development and reading plate: To each well, 15 μl (10% of the liquid volume in a well) of a color developing solution from CCK-8 was added; the plates were incubated at 37° C. for an appropriate time (try to keep the OD value in the range of 1.0-2.5); the covers of the 96-well plates were removed, and the plates were read at 450 nm on a microplate reader (Molecular Devices SpectraMax iD5).
(§6) (4) Data processing: The data was edited using SoftMax Pro 7.1 and a four-parameter fitting curve was plotted.

[3] = system: SK-BR-3 cells; experiment: as above; type: cell-based, human
Experimental: as §1, §2, §3, §4, §5, §6

[4] = system: HEK293T-FOLR1 cells; experiment: as above; type: cell-based, human
Experimental: as §1, §2, §3, §4, §5, §6

[5] = system: HEK293T cells; experiment: Cell expansion inhibition assay (CCK-8, 72 h), Table 3; type: cell-based, human; conditions: no visible FOLR1 expression
Experimental: (§7) Cell lines: HEK293T-FOLR1 (a stably transformed cell line overexpressing FOLR1), SK-BR-3 (human breast cancer cell) and HEK293T (human embryonic kidney cell).
as §2
(§8) (1) Cell plating: Cells were prepared in advance, digested with Trypsin, collected and counted. A complete cell culture medium was used to dilute HEK293T-FOLR1 and HEK293T cells to 6×10^3 cells/ml, and dilute SK-BR-3 cells to 1.5×10^4 cells/ml. 100 μl of diluted cell solution was added to each well of 96-well plates, and negative and blank control wells were set on each plate. The 96-well plates added with the cells were placed in an incubator at 37° C., 5% CO2 for culturing overnight.
as §4, §5, §6

[6] = system: SK-BR-3 cells; experiment: as above; type: cell-based, human; conditions: FOLR1 low expression
Experimental: as §7, §2, §8, §4, §5, §6

[7] = system: HEK293T-FOLR1 cells; experiment: as above; type: cell-based, human; conditions: FOLR1 high expression
Experimental: as §7, §2, §8, §4, §5, §6

[8] = 50 mg/kg, qw*3 and q3d*6, tail vein

**Q.** With `CC[C@@]1(O)C(=O)OCc2c1cc1n(c2=O)Cc2c-1nc1cc(F)c(C)c3c1c2[C@@H](NC(=O)CNC(=O)[C@H](Cc1ccccc1)NC(=O)CNC(=O)CNC(=O)CCCCC(=O)NCCCC[C@H](NC(=O)[C@H](CS)NC(=O)CC[C@H](NC(=O)c1ccc(NCc2cnc4nc(N)nc(O)c4n2)cc1)C(=O)O)C(=O)N[C@@H](CCC(=O)O)C(=O)N[C@@H](Cc1ccccc1)C(=O)N[C@@H](CC(C)C)C(=O)N[C@@H](Cc1c[nH]cn1)C(=O)N1CCC[C@H]1C(=O)N[C@@H](CO)C(=O)N[C@@H](CCCCN)C(=O)N[C@H](C(=O)N[C@@H](CC(=O)O)C(=O)N[C@@H](CC(C)C)C(=O)N1CCC[C@H]1C(=O)N[C@@H](CCCNC(=N)N)C(=O)O)C(C)C)CC3` [CR194AX] ({Pteroyl-γGlu}-CK(X1)EFLHPSKVDLPR-OH) as the molecule, how does the “average weight loss of the mice” value ([1]; 25 mg/kg q3d*6, tail vein) read?
**A.** ≤ 5%

**Q.** And the “mortality during the administration” value ([1]; 25 mg/kg q3d*6, tail vein)?
**A.** no mice died

**Q.** What about the tolerance ([1]; 25 mg/kg q3d*6, tail vein) of the same molecule?
**A.** good tolerance

**Q.** What about the “average weight loss of the mice” value [1, 8] of the same molecule?
**A.** ≤ 10%

**Q.** And the “mortality during the administration period” value [1, 8]?
**A.** no mice died

**Q.** And the tolerance [1, 8]?
**A.** good tolerance

**Q.** What about the “weights of the liver and spleen compared with the negative control group” value ([1]; each administration group, end of experiment) of the same molecule?
**A.** no significant difference

**Q.** Which results are given for `CC[C@@]1(O)C(=O)OCc2c1cc1n(c2=O)Cc2c-1nc1cc(F)c(C)c3c1c2[C@@H](N)CC3` [Dx]?
**A.** IC50 [2]: 5.53 nM; IC50 [3]: 0.569 nM; IC50 [4]: 0.995 nM; IC50 [5]: 1.12 nM; IC50 [6]: 0.599 nM; IC50 [7]: 1.02 nM

**Q.** For `CC[C@@]1(O)C(=O)OCc2c1cc1n(c2=O)Cc2c-1nc1cc(F)c(C)c3c1c2[C@@H](NC(=O)CO)CC3` [Dxd], which IC50 [2] is on record?
**A.** 111 nM

**Q.** And the IC50 [4]?
**A.** 1.68 nM

**Q.** For `CCc1c2c(nc3ccc(O)cc13)-c1cc3c(c(=O)n1C2)COC(=O)[C@]3(O)CC` [SN38], which IC50 [2] is on record?
**A.** 7.03 nM

**Q.** What about the IC50 [3] of the same molecule?
**A.** 0.947 nM

**Q.** And the IC50 [4]?
**A.** 0.943 nM

Reference: patent US20240358843A1, “LIGAND-DRUG CONJUGATE AND USE THEREOF” (priority 2021, published 2024)
